From US20100210537A1, “USE OF A DEFENSIN PEPTIDE AS A THERAPEUTIC AGENT” (priority 2007, published 2010)
Where no end group is shown, it is not given here.

Experiments:
HIV-1IIIB = test: HIV-1 antiviral assay in CEM-SS cells (MTS readout); assay type: cell-based
HCMV strain AD169 = test: HCMV plaque formation assay in MRC-5 cells; details: for inhibition of HCMV plaque formation as compared to the virus control experiment: 10 micrograms per ml, 7-10 days
Interferon-γ (IFN-γ) = test: Th1/Th2 cytokine profiling assay: IFN-gamma; assay type: cell-based, Balb/c mice; details: 10 micrograms per ml; Ovalbumin-restimulated spleen cells, 72 hours
Protocol: (§1) On day 50, spleens of the mice were harvested (3 weeks after last boost with Ovalbumin). Cells were cultured (2×10^5/well in triplicate) and incubated with culture medium or test peptides-10 micrograms per ml-for 30 min. Thereafter, additional Ovalbumin was added to the cells at 10 micrograms/ml for in vitro restimulation of the cells. 72 hours later, cell supernatants were harvested and assayed using the Becton Dickinson Mouse Th1/Th2 Cytokine CBA Kit.

[1] = tested on: Primary Human endothelial cells (HUVEC); test: Endothelial cell migration assay; assay type: cell-based; details: 10 micrograms per ml, 22 hours
Protocol: Thereafter, designated concentration of testing peptides-10 micrograms per ml-was added in duplicate wells.

[2] = tested on: hepatitis B virus (HBV) ayw strain; test: HBV assay in HepG2-2.2.15 cells (TaqMan PCR of secreted HBV DNA); assay type: cell-based; details: 10 micrograms per ml, six days
Excerpt: HepG2-2.2.15 is a stable cell line containing the hepatitis B virus (HBV) ayw strain genome (ATCC Cat. No. CRL-11997). Antiviral compounds blocking any late step of viral replication such as transcription, translation, pregenome encapsidation, reverse transcription, particle assembly and release can be identified and characterized using this cell line. In this assay, an active compound will reduce the production of secreted HBV from cells, measured by utilizing real time quantitative PCR (TaqMan) assay to directly and accurately measure HBV DNA copies.
HepG2-2.2.15 cells were plated in 96-well microtiter plates. After 16-24 hours the confluent monolayer of HepG2-2.2.15 cells was washed and the medium was replaced with complete medium containing test peptides-10 micrograms per ml-in duplicate. […] Six days following the initial administration of the peptides, the cell culture supernatants was collected, treated with pronase and DNAse and then used in a real-time quantitative TaqMan PCR assay. The PCR-amplified HBV DNA was detected in real-time by monitoring increases in fluorescence signals that result from the exonucleolytic degradation of a quenched fluorescence probe molecule that hybridizes to the mplified HBV DNA. […] Antiviral activity was calculated from the reduction in HBV DNA levels (% virus control). […]

Interleukin-2 (IL-2) = test: Th1/Th2 cytokine profiling assay: IL-2; assay type: cell-based, Balb/c mice; details: 10 micrograms per ml; Ovalbumin-restimulated spleen cells, 72 hours
Protocol: as §1

[3] = tested on: Tumor Necrosis Factor-α (TNF-α); test: Th1/Th2 cytokine profiling assay: TNF-alpha; assay type: cell-based, Balb/c mice; details: 10 micrograms per ml; Ovalbumin-restimulated spleen cells, 72 hours
Protocol: as §1

Interleukin-5 (IL-5) = test: Th1/Th2 cytokine profiling assay: IL-5; assay type: cell-based, Balb/c mice; details: 10 micrograms per ml; Ovalbumin-restimulated spleen cells, 72 hours
Protocol: as §1

HUVEC = test: Endothelial tube formation assay; assay type: cell-based, human; details: 10 micrograms per ml, 20 hours
Excerpt: Positive control was vehicle only.

Interleukin-4 (IL-4) = test: Th1/Th2 cytokine profiling assay: IL-4; assay type: cell-based, Balb/c mice; details: 10 micrograms per ml; Ovalbumin-restimulated spleen cells, 72 hours
Protocol: as §1

Row | Compound | antiviral activity of positive control compounds (HIV-1IIIB) | antiviral activity of positive control compound (HCMV strain AD169; positive control, HCMV AD169) | inhibition of HCMV plaque formation as compared to the virus control experiment (HCMV strain AD169) | change of the production of IFN-gamma in murine spleen cells (Interferon-γ (IFN-γ)) | inhibition of the migration of human endothelial cells [1] | inhibition of HBV replication as compared to the virus control infection [2] | decrease of the production of IL-2 in murine spleen cells (Interleukin-2 (IL-2)) | change of the production of TNF-alpha in murine spleen cells [3] | decrease of the production of IL-5 in murine spleen cells (Interleukin-5 (IL-5)) | inhibition of the tube formation of human endothelial cells (HUVEC) | decrease of the production of IL-4 in murine spleen cells (Interleukin-4 (IL-4))
1 | Cc1cn([C@H]2C[C@H](N=[N+]=[N-])[C@@H](CO)O2)c(=O)[nH]c1=O [AZT] | expected levels of antiviral activity | – | – | – | – | – | – | – | – | – | –
2 | Nc1nc(O)c2ncn(COC(CO)CO)c2n1 [Ganciclovir, reference compound] | – | expected levels of antiviral activity | – | – | – | – | – | – | – | – | –
3 | CC(C)(C)NC(=O)[C@@H]1CN(Cc2cccnc2)CCN1C[C@@H](O)C[C@@H](Cc1ccccc1)C(=O)N[C@H]1c2ccccc2C[C@H]1O [indinavir] | expected levels of antiviral activity | – | – | – | – | – | – | – | – | – | –
4 | Cys-Tyr-Cys-Arg-Ile-Pro-Ala-Cys-Ile-Ala-Gly-Glu-Arg-Arg-Tyr-Gly-Thr-Cys-Ile-Tyr-Gln-Gly-Arg-Leu-Trp-Ala-Phe-Cys-Cys-OH (CYCRIPACIAGERRYGTCIYQGRLWAFCC-OH; cysteine pairing not given here) [Peptide 1] | – | – | did not inhibit | did not significantly change | 17% | did not inhibit | 100% | did not significantly change | 38.4% | 21% | 49.4%
5 | Ser-Glu-Ile-Trp-Arg-Asp-Ile-Asp-Phe-OH (SEIWRDIDF-OH) [Peptide 2] | – | – | did not inhibit | did not significantly change | 18% | 21.6% | did not significantly change | did not significantly change | did not significantly change | 19% | did not significantly change
